Laboratory results published in paper PMC7725506, “Functional Diversification of SRSF Protein Kinase to Control Ubiquitin-Dependent Neurodevelopmental Signaling” (Developmental Cell, 2020).

Experiments:
[1] = test system: Foxp1 exon 16-16b alternative splicing switch; test: Foxp1 exon 16-16b incorporation in mESCs by quantitative RT-PCR; format: cell-based, mouse; settings: 1 μM, 8 h
Protocol: SRSF phosphorylation, SRPK1, SRPK2, and ERK1/2 levels were determined by immunoblotting. Expected positions of SRSFs that are not detected are shown in gray. Quantification of SRSF phosphorylation (Right). Data represented as mean ± SEM (n = 4). […] Neuro 2a is a control for exon 16b exclusion in differentiated cells (Bottom). Data represented as mean ± SEM (n = 3). […] Exon 16 inclusion: (^∗∗∗∗) p < 0.0001, Exon 16b inclusion: (^∗) p = 0.0164, p = 0.0485, and p = 0.0489 (left to right). Ratio exon 16b/16: (^∗∗∗∗) p < 0.0001, (^∗∗∗) p = 0.0003. (C) SRPK substrates predicted using ScanProsite and grouped according to UniProt functions. (D) RNF12 phosphorylation sites detected by mass-spectrometry. LZL, leucine-zipper like; NLS, nuclear localization signal; NES, nuclear export signal; RING, RING E3 ubiquitin ligase catalytic domain. (E) CMGC family kinase copy numbers in mESCs determined by quantitative proteomics and represented using Kinoviewer. (F) CMGC kinase (200 mU) phosphorylation of the RNF12 SR-motif in vitro was determined by immunoblotting for RNF12 phospho-Ser214 and total RNF12. […] Normalized RNF12 Ser214 phosphorylation is shown below. Data represented as mean ± SEM (n = 3). […] RNF12 SR-motif phosphorylation was analyzed by immunoblotting for RNF12 phospho-Ser214 and RNF12. SRPK1 and SRPK2 levels are shown as a loading control, Related to Figure S1; Tables S1 and S2.
Total RNA extraction and reverse transcription was performed as described. Quantitative PCR reactions using SsoFast EvaGreen Supermix (Bio-Rad) were performed in a CFX384 real time PCR system (Bio-Rad). Relative RNA expression was calculated through the ΔΔCt method and normalised to Gapdh expression. Data was analysed in Excel (Microsoft) and statistical analysis performed in GraphPad Prism v7.0c software (GraphPad Software Inc.).

SRPK2 = SRPK2 (Homo sapiens, UniProt P78362); test: Inhibition of RNF12 phosphorylation in vitro by SRPK2 (phospho-Ser214 immunoblot, dose-response); format: biochemical; settings: only this inhibitor of SRPIN340, SPHINX31, SRPKIN-1
Chain of SRPK2 (P78362 1-699 isoform P78362-2): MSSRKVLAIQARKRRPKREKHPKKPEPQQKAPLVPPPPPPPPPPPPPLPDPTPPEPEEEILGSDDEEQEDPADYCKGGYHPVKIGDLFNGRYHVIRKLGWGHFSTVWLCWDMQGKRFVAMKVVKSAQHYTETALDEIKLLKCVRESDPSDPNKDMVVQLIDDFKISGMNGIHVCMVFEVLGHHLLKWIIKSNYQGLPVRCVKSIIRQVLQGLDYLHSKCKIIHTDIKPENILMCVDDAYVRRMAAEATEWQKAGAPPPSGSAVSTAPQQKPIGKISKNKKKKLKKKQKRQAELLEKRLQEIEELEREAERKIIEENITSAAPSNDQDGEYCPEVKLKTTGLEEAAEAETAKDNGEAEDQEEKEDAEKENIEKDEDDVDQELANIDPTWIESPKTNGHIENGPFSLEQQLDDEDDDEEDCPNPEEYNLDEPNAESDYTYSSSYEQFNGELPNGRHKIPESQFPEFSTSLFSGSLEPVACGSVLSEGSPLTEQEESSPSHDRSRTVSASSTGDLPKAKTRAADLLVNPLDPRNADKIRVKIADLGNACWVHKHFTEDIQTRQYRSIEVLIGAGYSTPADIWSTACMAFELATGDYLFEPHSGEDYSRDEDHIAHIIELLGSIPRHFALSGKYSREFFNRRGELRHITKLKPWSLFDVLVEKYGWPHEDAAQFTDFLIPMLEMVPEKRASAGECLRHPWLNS
Protocol: Cells were lysed, and 1.5 mg of protein immunoprecipitated with 2 μg of SRPK1 or SRPK2 antibodies (BD Biosciences). Immunoprecipitates were then washed with lysis buffer supplemented with 500 mM NaCl and half of the sample was resuspended in loading buffer. The remainder was subjected to in vitro phosphorylation assay containing 0.5 μg RNF12 and 2 mM ATP in kinase buffer (50 mM Tris-HCl [pH 7.5], 0.1 mM EGTA, 10 mM MgCl2, 2 mM DTT) and incubated at 30°C for 30 min. […] For radioactive in vitro kinase assays, reactions were supplemented with 1 μCi γ-^32P ATP. Reactions were incubated at 30°C for 30 min in presence or absence of inhibitor as indicated and samples subjected to polyacrylamide electrophoresis and immunoblot or Coomassie blue staining and signal detected via ECL, infrared detection or autoradiography.
Supplemental Figure Legends
(Related to Figure 1). (A) Wild-type (WT) mESCs were analysed for protein copy number by absolute quantitative proteomics. […]
Data are represented as mean ± S.E.M. (n=3). […] ND = not detected. (B) Inhibition of RNF12 phosphorylation in vitro by SRPK1 and SRPK2 in the presence of varying concentrations of the indicated SRPK inhibitors was determined by immunoblotting for RNF12 phospho-Ser214 (Left). […] Immunoblots were quantified to generate SRPK inhibitor dose-response curves for inhibition of RNF12 phosphorylation by SRPK1 and SRPK2 in vitro (Right). […]

RNF12 SR-motif = RNF12 SR-motif phosphorylation in mouse cortical neurons by phos-tag immunoblotting; format: cell-based; settings: mature mouse cortical neurons cultured for 21 days, 10 μM, 4 h
Protocol: Figure 7 The SRPK-RNF12 Signaling Pathway Operates in Neurons (A) Primary cortical neurons isolated from E16.5 C57BL6 mice were cultured for the indicated number of days in vitro (DIV) and RNF12, SRPK1, and SRPK2, synaptophysin and actin levels analyzed via immunoblotting alongside the indicated mESC lines. (B) Cortical neurons were cultured for 21 days and treated with 10 μM MG132 and protein levels analyzed by immunoprecipitation and immunoblotting (REX1) and immunoblotting (RNF12 and ERK1/2). (C) Cortical neurons were cultured in vitro for the indicated number of days (DIV) and RNF12 and MAP2 neuron specific marker analyzed by immunofluorescence. Scale bar: 20 μm. (D) RNF12 SR-motif phosphorylation during in vitro mouse cortical neuron maturation was analyzed via phos-tag immunoblotting for RNF12. […] Synaptophysin and actin levels were determined by immunoblotting. […] Synaptophysin and actin levels were determined by immunoblotting. (F) The SRPK-RNF12-REX1 signaling pathway regulates neural gene expression and is disrupted in intellectual disability disorders. SRPK phosphorylates the RNF12 SR-motif to promote REX1 ubiquitylation and proteasomal degradation, which acts as a “brake” for neural gene expression in self-renewing pluripotent stem cells. In intellectual disability, inactivating mutations in SRPKs or RNF12 lead to REX1 accumulation and aberrant induction of neural genes. […]

Q: Which “Foxp1 exon 16b-exon 16 inclusion” value [1] does the source give for `CCc1cc2c(cc1-c1cccc(S(=O)(=O)F)c1)C(C)(C)c1[nH]c3cc(C#N)ccc3c1C2=O` [SRPKIN-1] here?
A: little effect

Q: What about the “inhibition of SRPK2” value (SRPK2) of the same compound?
A: potently inhibited

Q: And the “RNF12 phosphorylation (phos-tag)” value (RNF12 SR-motif)?
A: suppressed RNF12 phosphorylation
